# According to PubChem BioAssay AID651934 (Southern Research Specialized Biocontainment Screening …, 2012):
# pIC50: −log10 of the molar value. Activity calls are given as the source filed them. No rule for the calls is given here.
# Tested on: Chikungunya virus infected cells, CPE inhibition
# Experiment: Chikungunya virus CPE inhibitors, dose response, cell-based, secondary assay, set 3 (AID 651934)
# Settings: not given
row,SMILES,pIC50
1,O=c1nc(Nc2ccc(OCc3ccccc3)cc2)sc2ncccc12,5.97
2,O=c1nc(Nc2ccc(OCc3ccccc3)cc2)sc2ncc(F)cc12,5.44

# Tested on: not listed separately
# Experiment: as above
# Settings: Chikungunya virus infected cells, CPE inhibition; at 0.625 µM (top of the series)
row,SMILES,inhibition
1,COc1ccc(NC(=O)c2cc([N+](=O)[O-])ccc2N=C2CN(C)CCN2C)cc1,0.6% (inactive)

# Same assay, conditions: Chikungunya virus infected cells, CPE inhibition; at 25 µM (top of the series)
row,SMILES,inhibition
1,O=c1nc(NC2CCNCC2)sc2ncccc12,-0.4% (inactive)
2,CCN1CCN(Cc2nc3ccc(C#N)cc3c(=O)n2-c2ccccc2)CC1,-0.5% (inactive)
3,CCN1CCN(CC2Nc3ccc([N+](=O)[O-])cc3C(=O)N2c2ccccc2F)CC1 (centres undefined),-0.9% (inactive)
4,O=c1nc(Nc2ccc(OCc3ccccc3)cc2)sc2ncc([N+](=O)[O-])cc12,-1% (inactive)
5,CN1CCN(C)C(=Nc2ccc([N+](=O)[O-])cc2C(=O)Nc2ccccc2)C1,-1.6% (inactive)
6,CCN1CCN(c2nc3ccc([N+](=O)[O-])cc3c(=O)n2-c2ccccc2)CC1,-1.4% (inactive)
7,O=c1nc(N2CCN(Cc3ccccc3)CC2)sc2ncccc12,1.8% (inactive)
8,O=c1nc(Nc2ccccc2OCc2ccccc2)sc2ncccc12,-1% (inactive)
9,CCN1CCN(Cc2nc3ccc(S(=O)(=O)O)cc3c(=O)n2-c2ccccc2)CC1,-0.2% (inactive)
10,Cc1cccc(C)c1Nc1nc(=O)c2cccnc2s1,-0.7% (inactive)
11,O=c1nc(Nc2ccc(F)cc2)sc2ncccc12,0.9% (inactive)
12,CCN1CCN(Cc2nc3ccc([N+](=O)[O-])cc3c(=O)n2-c2ccccc2)CC1,1.8% (inactive)

# Same assay, conditions: Chikungunya virus infected cells, CPE inhibition; at 50 µM (top of the series)
row,SMILES,inhibition
1,CCN1CCN(C)CC1=Nc1ccc([N+](=O)[O-])cc1C(=O)Nc1ccccc1,1.7% (inactive)
2,CN1CCN(C)C(=Nc2ccc(C#N)cc2C(=O)Nc2cccc(F)c2)C1,3.5% (inactive)
3,CN1CCN(C)C(=Nc2cc(Cl)c(C#N)cc2C(=O)Nc2ccccc2)C1,2.9% (inactive)
4,O=c1nc(Nc2ccc(CCc3ccccc3)cc2)sc2ncccc12,44% (inactive)
5,COc1ccc(Nc2nc(=O)c3cccnc3s2)cc1,-5.2% (inactive)
6,CCN1CCN(Cc2nc3ccc([N+](=O)[O-])cc3c(=O)n2Cc2ccccc2)CC1,5.3% (inactive)
7,CN1CCN(C)C(=Nc2ccc(F)cc2C(=O)Nc2ccccc2)C1,2.2% (inactive)
8,CCN1CCN(Cc2nc3ccc([N+](=O)[O-])cc3c(=O)n2-c2ccccc2F)CC1,-3.4% (inactive)
9,O=c1c2cc([N+](=O)[O-])ccc2nc(CN2CCCNCC2)n1-c1ccccc1,4.1% (inactive)
10,CCN1CCN(Cc2nc3ccc(-c4nn[nH]n4)cc3c(=O)n2-c2ccccc2)CC1,0.6% (inactive)
11,CNCCCN(C)Cc1nc2ccc([N+](=O)[O-])cc2c(=O)n1-c1ccccc1,0.8% (inactive)
12,CNCCN(C)Cc1nc2ccc(C#N)cc2c(=O)n1-c1ccccc1F,6.3% (inactive)
13,O=C1CN(Cc2nc3ccc([N+](=O)[O-])cc3c(=O)n2-c2ccccc2F)CCN1,1.2% (inactive)
14,CCN(CC)c1nc(=O)c2cccnc2s1,-5.8% (inactive)
